Measurements from US6423689B1, “Peptidyl calcium channel blockers” (Warner-Lambert Company, priority 1997, dated 2002).

Columns and labels:
[1] = target: T1, N-type Ca2+ channels in superior cervical ganglion (SCG) neurons (Rattus norvegicus, UniProt Q02294); assay: Whole-cell voltage clamp, N-type Ca2+ current in SCG neurons; format: cell-based
T1 construct: from tissue
In short: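 Whole-cell voltage clamp of acutely trypsin-dissociated rat SCG neurons, with TEA/choline external solution (2 mM Ca2+) and Cs-methanesulfonate pipette solution. Currents evoked by 150 ms steps to +20 mV from −65 to −55 mV holding, every 40 s; compounds applied locally, effect as % inhibition of control amplitude.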

[2] = tested on: K+ channels in superior cervical ganglion (SCG) neurons; assay: Whole-cell voltage clamp, K+ current in SCG neurons; format: cell-based, rat; conditions: 10 μM
In short: (§1)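 Percent inhibition of control amplitude at steady-state block is the read-out: peak inward Na+ current at 0 mV, sustained K+ current at +50 mV, 35 msec steps every 10 sec from −65 to −55 mV. Recordings used whole-cell clamp of trypsin-dissociated SCG neurons, pH 7.4 external and pipette solutions, compounds applied by local perfusion.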

[3] = tested on: L-type Ca2+ channels in GH3 cells; assay: Inhibition of L-type calcium flux in GH3 cells (Indo-1 fluorescence); format: cell-based, rat
Protocol: Measurement of L-type Ca^2+ Channel Blocking Potencies of Compounds in GH3 Cells Using the Fluorescent Ca^2+ Indicator Indo-1
The GH3 rat pituitary cell line was obtained from the American Type Culture Collection (Rockville, Md.). Cells were grown in Ham's F-10 medium with 15% horse serum, 2.5% fetal bovine serum (FBS), and […] (Gibco, Gaithersburg, Md.). Confluent cells were detached using 0.5 mM EDTA and loaded with 5 μM Indo-acetoxymethyl ester (Molecular Probes, Eugene, Oreg.) in 1% bovine serum albumin (BSA) containing assay buffer (10 mM HEPES/Tris pH 7.4 in Hank's Balanced Salt Solution without bicarbonate or phenol red) for 60 minutes at 30° C. Loaded cells were washed twice, resuspended (approx. 10^7 cells/mL) in assay buffer containing 0.5% BSA, and kept on ice until use (<3 hrs). Different concentrations of the test compounds (60 μL in dimethyl sulfoxide) or controls were added to 5.94 mL of assay buffer containing approximately 3×10^6 loaded cells, and the samples were incubated for 10 minutes at 30° C. After incubation, samples were aliquoted into 3 cuvettes, and their fluorescence was measured with a Photon Technology International (PTI, South Brunswick, N.J.) Model RF-F3004 spectrofluorometer thermostatted at 30° C. Excitation was set at 350 nm and dual emissions were recorded at 400 and 490 nm. Basal emission signals were acquired for 20 seconds, followed by the depolarization of cells by the addition of 200 μL of a stimulation solution (1 M KCl, 68 mM CaCl2) to the stirred cuvette. Emission signals were acquired for an additional 50 seconds after depolarization. Ratio of emission signals (F400 nm/F490 nm), which is proportional to intracellular Ca^2+ concentration, was plotted against time, and the difference between the emission ratio 50 seconds after stimulation and its basal value (before stimulation) was determined. Values obtained in this way were considered as measures of depolarization-induced Ca-flux through L-type channels and plotted as a function of drug concentration. IC50 values of test compounds were calculated by fitting a four-parameter logistic function to the data using the least squares method.

[4] = tested on: Na+ channels in superior cervical ganglion (SCG) neurons; assay: Whole-cell voltage clamp, Na+ current in SCG neurons; format: cell-based, rat; conditions: 10 μM
In short: as §1

[5] = target: T2, N-type Ca2+ channels in IMR-32 cells (Homo sapiens, UniProt Q00975); assay: Inhibition of N-type calcium flux in IMR-32 cells (Indo-1 fluorescence, nitrendipine present); format: cell-based; conditions: for inhibition at 1 µM / inhibition at 10 µM: IMR-32; for IC50: IMR-32 cells, 5 μM nitrendipine, K+ depolarization
T2 construct: host or cells: IMR-32 cells, differentiated with dibutyryl cAMP and bromodeoxyuridine
T2 sequence (Q00975 whole entry): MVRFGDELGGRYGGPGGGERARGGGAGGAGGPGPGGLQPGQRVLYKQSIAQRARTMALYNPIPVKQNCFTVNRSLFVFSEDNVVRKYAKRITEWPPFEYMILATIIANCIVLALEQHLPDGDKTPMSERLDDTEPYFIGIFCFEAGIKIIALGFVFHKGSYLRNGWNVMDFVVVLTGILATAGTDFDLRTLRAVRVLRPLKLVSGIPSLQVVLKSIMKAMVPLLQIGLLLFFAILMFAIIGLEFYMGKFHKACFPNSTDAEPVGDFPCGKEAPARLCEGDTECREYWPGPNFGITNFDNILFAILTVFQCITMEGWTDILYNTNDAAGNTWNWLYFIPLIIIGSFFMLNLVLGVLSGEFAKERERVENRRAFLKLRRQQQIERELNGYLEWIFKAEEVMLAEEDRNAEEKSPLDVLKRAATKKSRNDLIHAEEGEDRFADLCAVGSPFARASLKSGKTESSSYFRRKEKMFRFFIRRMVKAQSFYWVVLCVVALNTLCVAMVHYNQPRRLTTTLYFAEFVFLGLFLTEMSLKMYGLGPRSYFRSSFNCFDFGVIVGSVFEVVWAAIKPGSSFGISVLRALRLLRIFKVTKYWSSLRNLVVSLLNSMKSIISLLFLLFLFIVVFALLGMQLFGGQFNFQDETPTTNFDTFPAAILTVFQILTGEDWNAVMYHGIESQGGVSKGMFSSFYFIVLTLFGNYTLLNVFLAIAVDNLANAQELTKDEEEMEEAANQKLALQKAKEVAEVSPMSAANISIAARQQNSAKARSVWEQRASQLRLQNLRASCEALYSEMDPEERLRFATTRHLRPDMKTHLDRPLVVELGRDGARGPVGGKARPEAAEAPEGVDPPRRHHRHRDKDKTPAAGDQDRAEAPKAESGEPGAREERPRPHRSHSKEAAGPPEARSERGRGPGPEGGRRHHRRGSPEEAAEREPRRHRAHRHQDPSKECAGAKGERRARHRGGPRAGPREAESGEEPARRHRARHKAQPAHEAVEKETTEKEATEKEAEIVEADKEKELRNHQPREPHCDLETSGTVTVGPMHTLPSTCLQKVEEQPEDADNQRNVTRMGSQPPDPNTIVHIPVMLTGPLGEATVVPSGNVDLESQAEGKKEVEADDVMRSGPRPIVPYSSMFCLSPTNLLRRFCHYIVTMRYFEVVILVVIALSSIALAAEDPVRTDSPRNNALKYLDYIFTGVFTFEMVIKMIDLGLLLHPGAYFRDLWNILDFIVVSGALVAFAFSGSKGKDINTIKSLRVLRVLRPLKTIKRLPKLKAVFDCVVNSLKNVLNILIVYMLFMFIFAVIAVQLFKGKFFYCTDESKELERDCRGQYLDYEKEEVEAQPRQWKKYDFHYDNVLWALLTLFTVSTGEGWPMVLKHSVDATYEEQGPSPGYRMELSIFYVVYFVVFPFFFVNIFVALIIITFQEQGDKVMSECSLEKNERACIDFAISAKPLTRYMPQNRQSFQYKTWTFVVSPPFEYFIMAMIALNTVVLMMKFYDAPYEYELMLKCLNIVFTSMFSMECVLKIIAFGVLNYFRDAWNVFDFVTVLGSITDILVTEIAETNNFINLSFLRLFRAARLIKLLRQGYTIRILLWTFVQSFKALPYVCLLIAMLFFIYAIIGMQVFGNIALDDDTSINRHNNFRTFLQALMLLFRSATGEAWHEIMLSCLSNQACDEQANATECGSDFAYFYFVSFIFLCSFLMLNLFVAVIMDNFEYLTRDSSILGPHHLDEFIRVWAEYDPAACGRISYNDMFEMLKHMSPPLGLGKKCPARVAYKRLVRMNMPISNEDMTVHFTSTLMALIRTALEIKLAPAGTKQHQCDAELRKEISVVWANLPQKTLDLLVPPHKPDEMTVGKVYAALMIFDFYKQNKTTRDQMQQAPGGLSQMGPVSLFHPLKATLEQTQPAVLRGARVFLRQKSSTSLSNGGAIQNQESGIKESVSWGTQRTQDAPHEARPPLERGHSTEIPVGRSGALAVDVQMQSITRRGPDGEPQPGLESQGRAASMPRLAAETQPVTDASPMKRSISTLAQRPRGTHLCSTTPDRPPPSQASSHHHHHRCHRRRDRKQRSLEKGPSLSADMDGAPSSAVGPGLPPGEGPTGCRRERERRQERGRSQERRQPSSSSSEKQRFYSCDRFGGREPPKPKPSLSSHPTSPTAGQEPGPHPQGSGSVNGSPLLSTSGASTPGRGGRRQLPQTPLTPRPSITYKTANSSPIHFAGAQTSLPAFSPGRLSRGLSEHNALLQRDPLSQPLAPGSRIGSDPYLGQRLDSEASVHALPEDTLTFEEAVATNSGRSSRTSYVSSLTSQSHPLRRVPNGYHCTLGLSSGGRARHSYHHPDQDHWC
T2 sequence (P54289 25-956 partner limits assumed): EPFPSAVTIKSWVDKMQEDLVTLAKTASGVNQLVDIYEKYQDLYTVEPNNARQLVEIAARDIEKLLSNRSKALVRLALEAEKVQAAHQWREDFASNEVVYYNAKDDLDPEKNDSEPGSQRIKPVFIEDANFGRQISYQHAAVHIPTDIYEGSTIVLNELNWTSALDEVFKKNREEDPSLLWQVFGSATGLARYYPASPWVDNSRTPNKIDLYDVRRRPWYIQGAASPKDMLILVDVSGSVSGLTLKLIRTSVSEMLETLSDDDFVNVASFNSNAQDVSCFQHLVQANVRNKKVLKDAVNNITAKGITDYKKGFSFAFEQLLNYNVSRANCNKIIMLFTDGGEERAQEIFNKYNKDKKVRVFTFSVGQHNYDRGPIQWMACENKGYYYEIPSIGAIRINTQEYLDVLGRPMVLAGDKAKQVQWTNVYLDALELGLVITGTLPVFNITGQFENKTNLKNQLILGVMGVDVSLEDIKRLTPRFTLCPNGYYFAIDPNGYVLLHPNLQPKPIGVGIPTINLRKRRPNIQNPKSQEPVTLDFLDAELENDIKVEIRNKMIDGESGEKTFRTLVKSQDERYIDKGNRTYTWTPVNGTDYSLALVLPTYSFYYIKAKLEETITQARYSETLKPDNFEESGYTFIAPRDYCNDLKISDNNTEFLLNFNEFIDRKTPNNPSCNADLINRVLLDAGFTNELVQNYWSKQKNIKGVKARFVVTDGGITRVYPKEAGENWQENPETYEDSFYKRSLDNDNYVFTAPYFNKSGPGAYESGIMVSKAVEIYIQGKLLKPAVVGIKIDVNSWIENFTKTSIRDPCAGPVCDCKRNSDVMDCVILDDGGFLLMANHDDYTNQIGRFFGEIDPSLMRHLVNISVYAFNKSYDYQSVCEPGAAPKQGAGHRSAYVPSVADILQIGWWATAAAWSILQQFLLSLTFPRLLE
T2 sequence (P54289 957-1103 partner limits assumed): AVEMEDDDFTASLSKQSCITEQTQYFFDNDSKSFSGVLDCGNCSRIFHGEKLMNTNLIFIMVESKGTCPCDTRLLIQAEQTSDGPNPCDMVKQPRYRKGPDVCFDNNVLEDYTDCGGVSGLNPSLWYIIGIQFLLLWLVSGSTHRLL
T2 sequence (P54284 whole entry partner): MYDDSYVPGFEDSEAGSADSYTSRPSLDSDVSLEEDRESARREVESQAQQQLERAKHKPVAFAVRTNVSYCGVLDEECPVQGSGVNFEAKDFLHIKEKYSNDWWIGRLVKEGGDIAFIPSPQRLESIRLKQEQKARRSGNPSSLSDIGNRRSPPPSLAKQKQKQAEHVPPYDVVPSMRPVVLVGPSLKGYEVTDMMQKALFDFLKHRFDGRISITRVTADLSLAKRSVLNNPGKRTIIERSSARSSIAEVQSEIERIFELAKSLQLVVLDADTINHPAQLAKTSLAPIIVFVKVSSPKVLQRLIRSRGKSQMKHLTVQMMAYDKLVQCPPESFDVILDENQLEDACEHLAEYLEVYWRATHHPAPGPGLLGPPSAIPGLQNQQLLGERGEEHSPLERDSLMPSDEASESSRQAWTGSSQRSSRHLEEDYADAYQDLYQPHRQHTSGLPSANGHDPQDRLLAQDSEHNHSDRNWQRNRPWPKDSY
In short: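 With L-type flux blocked by 5 μM nitrendipine, N-type Ca2+ entry was read as the Indo-1 emission ratio (400/490 nm, excitation 350 nm) at 30° C after KCl depolarization.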

Row | SMILES | inhibition at 10 µM ([1]; 10 μM) | IC50 ([1]; read-out: Inhibition of N-type Ca2+ Current IC50) | Inhibition of K+ Current, % Inhibition at 10 μM [2] | IC50 [3] | Inhibition of Na+ Current, % Inhibition at 10 μM [4] | inhibition at 1 µM [5] | inhibition at 10 µM [5] | IC50 [5] | melting point
1 | CC(C)C[C@H](NC(=O)N1CCCCCC1)C(=O)N[C@@H](Cc1ccc(OCc2ccccc2)cc1)C(=O)NC(C)(C)C [Example 23, [S-(R*,R*)]-Azepane-1-carboxylic acid {1-[2-(4-benzyloxy-phenyl)-1-tert-butylcarbamoyl-ethylcarbamoyl]-3-methyl-butyl}-amide] | 78% | 3.24 µM | 61% | 18 µM | 30% | 55% | 95% | 0.58 µM | –
2 | CC(C)(C)OC(=O)[C@H](Cc1ccc(OCc2ccccc2)cc1)NC(=O)[C@H](Cc1c[nH]c2ccccc12)NC(=O)N1CCCCCC1 [Example 20, [S-(R*,R*)]-2-[2-[(Azepane-1-carbonyl)-amino]-3-(1H-indol-3-yl)-propionylamino]-3-(4-benzyloxy-phenyl)-propionic acid tert-butyl ester] | – | – | – | 4.6 µM | – | 52% | 90% | 0.91 µM | –
3 | CC(C)(C)OC(=O)[C@@H](Cc1ccc(OCc2ccccc2)cc1)NC(=O)[C@H](Cc1c[nH]c2ccccc12)NC(=O)N1CCCCCC1 [Example 17, 2(R)-[2(S)-[(Azepane-1-carbonyl)-amino]-3-(1H-indol-3-yl)-propionylamino]-3-(4-benzyloxy-phenyl)-propionic acid tert-butyl ester] | – | – | – | 5.8 µM | – | 41% | 85% | 1.85 µM | –
4 | Cc1ccc(COc2ccc(C[C@H](NC(=O)[C@H](Cc3ccccc3)NC(=O)N3CCCCCC3)C(=O)OC(C)(C)C)cc2)cc1 [Example 19, [S-(R*,R*)]-2-{2-[(Azepane-1-carbonyl)-amino]-3-phenyl-propionylamino}-3-[4-(4-methyl-benzyloxy)-phenyl]-propionic acid tert-butyl ester] | – | – | – | 4.3 µM | – | 68% | 91% | 0.5 µM | 87 to 90 °C
5 | CC(C)(C)OC(=O)[C@@H](Cc1ccc(OCc2ccccc2)cc1)NC(=O)[C@H](Cc1ccccc1)NC(=O)N1CCCCCC1 [Example 18, 2(R)-{2(S)-[(Azepane-1-carbonyl)-amino]-3-phenyl-propionylamino}-3-(4-benzyloxy-phenyl)-propionic acid tert-butyl ester] | – | – | – | 3.5 µM | – | 50% | 97% | 0.93 µM | –
